# Assay results published in ChEMBL document CHEMBL3797178, “Synthesis, antimycobacterial and antibacterial activity of 1-(6-amino-3,5-difluoropyridin-2-yl)fluoroquinolone derivatives containing an oxime functional moiety” (2016).
# Experiments:
# Assay type in all cases: functional
# Klebsiella pneumoniae [1] = assay: Antibacterial activity against Klebsiella pneumoniae 14-2 after 18 to 24 hrs by CLSI M100-S11 method
# Pseudomonas aeruginosa [2] = assay: Antibacterial activity against Pseudomonas aeruginosa 14-16 after 18 to 24 hrs by CLSI M100-S11 method
# Escherichia coli [3] = assay: Antibacterial activity against Escherichia coli ATCC 25922 after 18 to 24 hrs by CLSI M100-S11 method
# Staphylococcus aureus [4] = assay: Antibacterial activity against Staphylococcus aureus CMCC 26003 after 18 to 24 hrs by CLSI M100-S11 method
# Klebsiella pneumoniae [5] = assay: Antibacterial activity against Klebsiella pneumoniae 14-1 after 18 to 24 hrs by CLSI M100-S11 method
# Enterococcus faecium [6] = assay: Antibacterial activity against Enterococcus faecium 14-1 after 18 to 24 hrs by CLSI M100-S11 method
# Pseudomonas aeruginosa [7] = assay: Antibacterial activity against Pseudomonas aeruginosa 14-14 after 18 to 24 hrs by CLSI M100-S11 method
# [8] = test system: Staphylococcus epidermidis; assay: Antibacterial activity against methicillin-resistant Staphylococcus epidermidis 14-37 after 18 to 24 hrs by CLSI M100-S11 method
# Pseudomonas aeruginosa [9] = assay: Antibacterial activity against Pseudomonas aeruginosa 14-15 after 18 to 24 hrs by CLSI M100-S11 method
# Streptococcus pneumoniae = assay: Antibacterial activity against Streptococcus pneumoniae ATCC 19615 after 18 to 24 hrs by CLSI M100-S11 method
# Enterococcus faecalis [10] = assay: Antibacterial activity against Enterococcus faecalis 14-3 after 18 to 24 hrs by CLSI M100-S11 method
# Klebsiella pneumoniae [11] = assay: Antibacterial activity against extended-spectrum beta-lactamase-producing Klebsiella pneumoniae 14-17 after 18 to 24 hrs by CLSI M100-S11 method
# Pseudomonas aeruginosa [12] = assay: Antibacterial activity against Pseudomonas aeruginosa 14-9 after 18 to 24 hrs by CLSI M100-S11 method
# [13] = test system: Staphylococcus epidermidis; assay: Antibacterial activity against methicillin-sensitive Staphylococcus epidermidis 14-6 after 18 to 24 hrs by CLSI M100-S11 method
# Staphylococcus aureus [14] = assay: Antibacterial activity against methicillin-sensitive Staphylococcus aureus 14-2 after 18 to 24 hrs by CLSI M100-S11 method
# [15] = test system: Staphylococcus epidermidis; assay: Antibacterial activity against methicillin-sensitive Staphylococcus epidermidis 14-2 after 18 to 24 hrs by CLSI M100-S11 method
# Enterococcus faecium [16] = assay: Antibacterial activity against Enterococcus faecium 14-2 after 18 to 24 hrs by CLSI M100-S11 method
# Enterococcus faecalis [17] = assay: Antibacterial activity against Enterococcus faecalis 14-1 after 18 to 24 hrs by CLSI M100-S11 method
# Staphylococcus aureus [18] = assay: Antibacterial activity against methicillin-sensitive Staphylococcus aureus 14-4 after 18 to 24 hrs by CLSI M100-S11 method
# [19] = test system: Staphylococcus epidermidis; assay: Antibacterial activity against methicillin-resistant Staphylococcus epidermidis 14-22 after 18 to 24 hrs by CLSI M100-S11 method
# Escherichia coli [20] = assay: Antibacterial activity against Escherichia coli 14-2 after 18 to 24 hrs by CLSI M100-S11 method
# Klebsiella pneumoniae [21] = assay: Antibacterial activity against Klebsiella pneumoniae 14-4 after 18 to 24 hrs by CLSI M100-S11 method
# [22] = test system: Staphylococcus epidermidis; assay: Antibacterial activity against methicillin-sensitive Staphylococcus epidermidis 14-4 after 18 to 24 hrs by CLSI M100-S11 method
# Klebsiella pneumoniae [23] = assay: Antibacterial activity against extended-spectrum beta-lactamase-producing Klebsiella pneumoniae 14-19 after 18 to 24 hrs by CLSI M100-S11 method
# [24] = test system: Mycobacterium tuberculosis; assay: Antimycobacterial activity against Mycobacterium tuberculosis H37Rv ATCC 27294 after 3 days by microplate Alamar Blue assay; conditions: H37Rv ATCC 27294, 72 h
# Escherichia coli [25] = assay: Antibacterial activity against extended-spectrum beta-lactamase-producing Escherichia coli 14-1 after 18 to 24 hrs by CLSI M100-S11 method
# [26] = test system: Staphylococcus epidermidis; assay: Antibacterial activity against methicillin-resistant Staphylococcus epidermidis 14-39 after 18 to 24 hrs by CLSI M100-S11 method
# Pseudomonas aeruginosa [27] = assay: Antibacterial activity against Pseudomonas aeruginosa 14-19 after 18 to 24 hrs by CLSI M100-S11 method
# Pseudomonas aeruginosa [28] = assay: Antibacterial activity against Pseudomonas aeruginosa ATCC 27853 after 18 to 24 hrs by CLSI M100-S11 method
# Klebsiella pneumoniae [29] = assay: Antibacterial activity against extended-spectrum beta-lactamase-producing Klebsiella pneumoniae 14-18 after 18 to 24 hrs by CLSI M100-S11 method
# Staphylococcus aureus [30] = assay: Antibacterial activity against methicillin-resistant Staphylococcus aureus 14-5 after 18 to 24 hrs by CLSI M100-S11 method
# Escherichia coli [31] = assay: Antibacterial activity against Escherichia coli 14-1 after 18 to 24 hrs by CLSI M100-S11 method
# Staphylococcus aureus [32] = assay: Antibacterial activity against methicillin-sensitive Staphylococcus aureus 14-3 after 18 to 24 hrs by CLSI M100-S11 method
# Klebsiella pneumoniae [33] = assay: Antibacterial activity against Klebsiella pneumoniae 14-3 after 18 to 24 hrs by CLSI M100-S11 method
# Staphylococcus aureus [34] = assay: Antibacterial activity against methicillin-resistant Staphylococcus aureus 14-4 after 18 to 24 hrs by CLSI M100-S11 method
# Escherichia coli [35] = assay: Antibacterial activity against extended-spectrum beta-lactamase-producing Escherichia coli 14-2 after 18 to 24 hrs by CLSI M100-S11 method
# Enterococcus faecalis [36] = assay: Antibacterial activity against Enterococcus faecalis 14-2 after 18 to 24 hrs by CLSI M100-S11 method
Structure (SMILES),MIC (Klebsiella pneumoniae [1]) [µg/mL],MIC (Pseudomonas aeruginosa [2]) [µg/mL],MIC (Escherichia coli [3]) [µg/mL],MIC (Staphylococcus aureus [4]) [µg/mL],MIC (Klebsiella pneumoniae [5]) [µg/mL],MIC (Enterococcus faecium [6]) [µg/mL],MIC (Pseudomonas aeruginosa [7]) [µg/mL],MIC [8] [µg/mL],MIC (Pseudomonas aeruginosa [9]) [µg/mL],MIC (Streptococcus pneumoniae) [µg/mL],MIC (Enterococcus faecalis [10]) [µg/mL],MIC (Klebsiella pneumoniae [11]) [µg/mL],MIC (Pseudomonas aeruginosa [12]) [µg/mL],MIC [13] [µg/mL],MIC (Staphylococcus aureus [14]) [µg/mL],MIC [15] [µg/mL],MIC (Enterococcus faecium [16]) [µg/mL],MIC (Enterococcus faecalis [17]) [µg/mL],MIC (Staphylococcus aureus [18]) [µg/mL],MIC [19] [µg/mL],further results
NC[C@@H]1/C(=N/OCc2ccccc2)CN1c1nc2c(cc1F)c(=O)c(C(=O)O)cn2-c1nc(N)c(F)cc1F,> 128,128,8,4,> 128,> 128,128,> 128,128,64,> 128,> 128,128,> 128,4,> 128,32,> 128,4,> 128,MIC (Escherichia coli [20]): > 128 µg/mL; MIC (Klebsiella pneumoniae [21]): > 128 µg/mL; MIC [22]: > 128 µg/mL; MIC (Klebsiella pneumoniae [23]): > 128 µg/mL; MIC [24]: > 32 µg/mL; MIC (Escherichia coli [25]): 128 µg/mL; MIC [26]: > 133 µg/mL; MIC (Pseudomonas aeruginosa [27]): 128 µg/mL; MIC (Pseudomonas aeruginosa [28]): 128 µg/mL; MIC (Klebsiella pneumoniae [29]): 128 µg/mL; MIC (Staphylococcus aureus [30]): > 128 µg/mL; MIC (Escherichia coli [31]): > 128 µg/mL; MIC (Staphylococcus aureus [32]): 8 µg/mL; MIC (Klebsiella pneumoniae [33]): > 128 µg/mL; MIC (Staphylococcus aureus [34]): > 128 µg/mL; MIC (Escherichia coli [35]): > 128 µg/mL; MIC (Enterococcus faecalis [36]): > 128 µg/mL
CCO/N=C1\CN(c2nc3c(cc2F)c(=O)c(C(=O)O)cn3-c2nc(N)c(F)cc2F)[C@@H]1CN,> 128,128,16,16,> 128,> 128,128,> 128,128,64,> 128,> 128,128,> 128,32,> 128,128,> 128,32,> 128,MIC (Escherichia coli [20]): > 128 µg/mL; MIC (Klebsiella pneumoniae [21]): > 128 µg/mL; MIC [22]: > 128 µg/mL; MIC (Klebsiella pneumoniae [23]): > 128 µg/mL; MIC [24]: > 32 µg/mL; MIC (Escherichia coli [25]): > 128 µg/mL; MIC [26]: > 132 µg/mL; MIC (Pseudomonas aeruginosa [27]): 128 µg/mL; MIC (Pseudomonas aeruginosa [28]): 128 µg/mL; MIC (Klebsiella pneumoniae [29]): > 128 µg/mL; MIC (Staphylococcus aureus [30]): > 128 µg/mL; MIC (Escherichia coli [31]): > 128 µg/mL; MIC (Staphylococcus aureus [32]): 32 µg/mL; MIC (Klebsiella pneumoniae [33]): > 128 µg/mL; MIC (Staphylococcus aureus [34]): > 128 µg/mL; MIC (Escherichia coli [35]): > 128 µg/mL; MIC (Enterococcus faecalis [36]): > 128 µg/mL
